The record followed here is ChEMBL document CHEMBL1131447 (J Med Chem, 1998).

Bounds are passed on as bounds.

Experiment [1] deals with T1, 5-hydroxytryptamine receptor 2A (Rattus norvegicus, UniProt P14842).
The test system of experiment [2] is Rattus norvegicus. Put plainly: In vivo antipsychotic activity measured by the induction of catalepsy in rats after po administration. Type of experiment: functional.
Experiment [3] has as its system Mus musculus. Put plainly: In vivo antipsychotic activity measured by the inhibition of apomorphine-induced climbing behavior in mice after 30 min po administration. Type of experiment: functional. As to conditions: 0.5 h.
In experiment [4] the test system is Rattus norvegicus. Put plainly: In vivo antipsychotic activity measured by the induction of catalepsy in rats after po administration. Type of experiment: functional.
In experiment [5] the target is T1, 5-hydroxytryptamine receptor 2A. This is another data set of the same source.
Description: Binding affinity measured at the 5-hydroxytryptamine 2A receptor by the inhibition of [3H]ketanserin binding to rat cortex using unlabeled mianserin for nonspecific binding.
The species named for experiment [6] is Rattus norvegicus. Put plainly: Inhibition of apomorphine-induced stereotypy in rats. Type of experiment: functional.
Another experiment has as its target D(1A) dopamine receptor (Rattus norvegicus, UniProt P18901). The experiment in a line: biochemical.
Experiment [7] is filed under the species Mus musculus. The experiment in a line: Inhibition of head twitches-induced by 2,5-dimethoxy-4-iodoamphetamine in mice. Type of experiment: functional.
The species named for experiment [8] is Mus musculus. The experiment in a line: Inhibition of grooming-induced by SKF 38393 in mice. Type of experiment: functional.
The target of a further experiment is D(3) dopamine receptor (Homo sapiens, UniProt P35462). Put plainly: Binding affinity measured at the Dopamine receptor D3 by the inhibition of [3H]YM-09151-2 binding to human recombinant CCL 1.3 cells using unlabeled 7-OH-DPAT for nonspecific binding.
D(3) dopamine receptor, sequence (P35462 whole entry): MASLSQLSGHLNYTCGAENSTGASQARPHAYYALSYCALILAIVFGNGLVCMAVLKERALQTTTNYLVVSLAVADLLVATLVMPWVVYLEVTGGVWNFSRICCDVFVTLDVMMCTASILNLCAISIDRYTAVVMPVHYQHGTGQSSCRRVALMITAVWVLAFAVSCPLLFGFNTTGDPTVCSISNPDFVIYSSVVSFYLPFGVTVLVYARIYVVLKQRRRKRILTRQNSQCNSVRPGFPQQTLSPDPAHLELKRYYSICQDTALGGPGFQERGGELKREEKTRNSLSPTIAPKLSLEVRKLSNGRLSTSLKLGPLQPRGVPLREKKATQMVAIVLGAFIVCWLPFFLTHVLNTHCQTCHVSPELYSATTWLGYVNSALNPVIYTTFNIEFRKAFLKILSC
The species entered for experiment [9] is Mus musculus. Put plainly: Inhibition of p-chloroamphetamine-induced hyperactivity in mice. It is filed as functional.
Experiment [10] concerns the target T2, Alpha-1A adrenergic receptor (Rattus norvegicus, UniProt P43140).
T2 sequence (P43140 whole entry): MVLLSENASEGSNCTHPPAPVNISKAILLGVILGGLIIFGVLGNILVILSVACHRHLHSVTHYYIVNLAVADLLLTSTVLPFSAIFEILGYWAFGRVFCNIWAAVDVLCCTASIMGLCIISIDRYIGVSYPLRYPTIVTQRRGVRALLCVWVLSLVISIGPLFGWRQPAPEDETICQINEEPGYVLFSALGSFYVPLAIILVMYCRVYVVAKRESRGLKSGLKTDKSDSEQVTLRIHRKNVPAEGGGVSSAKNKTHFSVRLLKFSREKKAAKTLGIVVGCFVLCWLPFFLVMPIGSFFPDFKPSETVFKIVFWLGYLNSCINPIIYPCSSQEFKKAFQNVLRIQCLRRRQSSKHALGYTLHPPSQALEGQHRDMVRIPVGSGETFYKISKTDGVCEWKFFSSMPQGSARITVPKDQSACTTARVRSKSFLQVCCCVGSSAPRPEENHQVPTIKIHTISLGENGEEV
Description: Binding affinity measured at the Alpha-1A adrenergic receptor by the inhibition of [3H]prazosin binding to rat cortex using unlabeled WB-4101 for nonspecific binding.

For experiment [11], the target named is T3, 5-hydroxytryptamine receptor 1A (Rattus norvegicus, UniProt P19327).
T3 sequence (P19327 whole entry): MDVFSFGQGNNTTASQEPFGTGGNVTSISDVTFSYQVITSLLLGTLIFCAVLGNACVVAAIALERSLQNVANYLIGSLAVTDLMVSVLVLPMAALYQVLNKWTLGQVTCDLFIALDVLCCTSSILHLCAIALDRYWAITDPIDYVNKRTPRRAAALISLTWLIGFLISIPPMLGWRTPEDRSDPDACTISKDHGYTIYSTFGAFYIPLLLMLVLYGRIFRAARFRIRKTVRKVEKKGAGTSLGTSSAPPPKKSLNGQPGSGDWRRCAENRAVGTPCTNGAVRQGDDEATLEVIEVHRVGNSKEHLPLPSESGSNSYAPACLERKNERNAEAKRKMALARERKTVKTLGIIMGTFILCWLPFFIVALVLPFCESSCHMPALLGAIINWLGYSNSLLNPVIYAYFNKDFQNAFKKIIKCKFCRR
Put plainly: Binding affinity measured at the 5-hydroxytryptamine 1A receptor by the inhibition of [3H]8-OH-DPAT binding to rat cortex using unlabeled buspirone for nonspecific binding.

The target of another experiment is Adrenergic receptor beta (Rattus norvegicus, UniProt P18090+P10608+P26255). The experiment in a line: Binding affinity measured at the Beta adrenergic receptor by the inhibition of [3H]DHA binding to rat cortex using unlabeled isoprenalin for nonspecific binding.
In another experiment the target is T4, D(4) dopamine receptor (Homo sapiens, UniProt P21917).
T4 sequence (P21917 whole entry): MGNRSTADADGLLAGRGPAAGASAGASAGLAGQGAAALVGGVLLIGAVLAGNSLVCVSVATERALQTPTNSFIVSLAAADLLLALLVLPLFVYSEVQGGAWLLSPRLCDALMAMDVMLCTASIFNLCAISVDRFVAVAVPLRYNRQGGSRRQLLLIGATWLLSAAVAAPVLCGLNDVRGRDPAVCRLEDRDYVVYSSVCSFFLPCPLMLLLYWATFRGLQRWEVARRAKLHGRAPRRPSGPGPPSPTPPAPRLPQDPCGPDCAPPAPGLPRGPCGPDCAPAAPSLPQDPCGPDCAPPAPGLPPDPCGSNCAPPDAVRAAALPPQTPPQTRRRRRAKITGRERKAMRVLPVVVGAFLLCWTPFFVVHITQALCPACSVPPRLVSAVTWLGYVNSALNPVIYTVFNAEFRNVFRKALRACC
The experiment in a line: biochemical.

The target in experiment [12] is Muscarinic acetylcholine receptor. The experiment in a line: Binding affinity measured at the Muscarinic acetylcholine receptor by the inhibition of [3H]-pyrilamine binding to guinea pig cerebellum using unlabeled Triprolidine for nonspecific binding. Type of experiment: tissue-based, Cavia porcellus.
In experiment [13] the target is T5, Adrenergic receptor alpha-2 (Rattus norvegicus, UniProt P22086+P19328+P22909).
T5 sequence (P22086 whole entry): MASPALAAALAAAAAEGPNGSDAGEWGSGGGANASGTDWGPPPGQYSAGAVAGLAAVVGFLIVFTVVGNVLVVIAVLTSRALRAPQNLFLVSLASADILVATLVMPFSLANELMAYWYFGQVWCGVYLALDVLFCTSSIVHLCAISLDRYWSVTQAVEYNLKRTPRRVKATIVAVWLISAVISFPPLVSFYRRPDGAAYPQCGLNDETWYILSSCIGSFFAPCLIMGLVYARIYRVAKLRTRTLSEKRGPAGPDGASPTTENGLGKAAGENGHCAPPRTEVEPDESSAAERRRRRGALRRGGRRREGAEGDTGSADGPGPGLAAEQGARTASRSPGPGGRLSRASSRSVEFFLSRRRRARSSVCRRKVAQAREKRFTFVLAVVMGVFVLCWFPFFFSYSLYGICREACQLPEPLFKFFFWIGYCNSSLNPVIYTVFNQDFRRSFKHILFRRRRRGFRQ
T5 sequence (P19328 whole entry): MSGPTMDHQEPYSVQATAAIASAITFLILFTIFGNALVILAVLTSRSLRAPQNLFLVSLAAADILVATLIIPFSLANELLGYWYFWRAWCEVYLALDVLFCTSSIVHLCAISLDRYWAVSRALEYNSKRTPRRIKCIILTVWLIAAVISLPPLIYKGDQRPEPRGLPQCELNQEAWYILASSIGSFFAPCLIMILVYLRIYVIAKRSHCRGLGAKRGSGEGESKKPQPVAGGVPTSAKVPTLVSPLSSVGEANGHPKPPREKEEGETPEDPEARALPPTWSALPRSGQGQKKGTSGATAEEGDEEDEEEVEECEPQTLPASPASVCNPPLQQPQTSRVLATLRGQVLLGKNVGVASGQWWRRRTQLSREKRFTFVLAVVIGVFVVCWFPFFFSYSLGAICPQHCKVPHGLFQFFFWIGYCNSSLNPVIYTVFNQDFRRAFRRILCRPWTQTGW
T5 sequence (P22909 whole entry): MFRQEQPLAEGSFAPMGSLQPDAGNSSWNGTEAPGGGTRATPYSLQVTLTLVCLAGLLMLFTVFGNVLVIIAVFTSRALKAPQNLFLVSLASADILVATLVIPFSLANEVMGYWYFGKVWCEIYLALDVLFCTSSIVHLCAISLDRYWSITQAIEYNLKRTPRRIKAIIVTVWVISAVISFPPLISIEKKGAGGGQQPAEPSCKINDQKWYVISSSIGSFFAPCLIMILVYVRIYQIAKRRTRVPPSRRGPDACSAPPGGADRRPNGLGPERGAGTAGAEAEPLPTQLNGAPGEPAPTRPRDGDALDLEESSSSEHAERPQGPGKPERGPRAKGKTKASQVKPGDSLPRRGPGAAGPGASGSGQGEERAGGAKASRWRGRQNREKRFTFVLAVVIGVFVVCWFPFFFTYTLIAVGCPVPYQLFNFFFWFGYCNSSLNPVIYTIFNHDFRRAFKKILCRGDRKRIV
Put plainly: Binding affinity measured at the Alpha-2 adrenergic receptor by the inhibition of [3H]clonidine binding to rat cortex using unlabeled NAbitartrate for nonspecific binding.

Experiment [14] concerns the target Beta-1 adrenergic receptor (Rattus norvegicus, UniProt P18090). Put plainly: Binding affinity measured at the Beta-1 adrenergic receptor by the inhibition of [3H]DHA binding to rat cortex using unlabeled isoprenalin for nonspecific binding.

T1 sequence (P14842 whole entry): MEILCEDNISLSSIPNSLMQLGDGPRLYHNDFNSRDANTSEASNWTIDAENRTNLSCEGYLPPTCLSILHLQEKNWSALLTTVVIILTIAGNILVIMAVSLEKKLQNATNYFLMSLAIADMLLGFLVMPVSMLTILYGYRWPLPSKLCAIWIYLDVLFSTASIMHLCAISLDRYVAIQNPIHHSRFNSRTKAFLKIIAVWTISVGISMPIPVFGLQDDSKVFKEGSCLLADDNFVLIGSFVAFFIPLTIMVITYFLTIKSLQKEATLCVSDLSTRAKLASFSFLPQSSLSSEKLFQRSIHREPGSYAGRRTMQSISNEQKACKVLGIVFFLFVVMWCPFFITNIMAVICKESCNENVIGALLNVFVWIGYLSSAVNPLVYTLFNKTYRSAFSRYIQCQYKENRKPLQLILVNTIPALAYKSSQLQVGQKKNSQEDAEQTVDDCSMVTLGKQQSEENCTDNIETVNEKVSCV
Beta-1 adrenergic receptor, sequence (P18090 whole entry): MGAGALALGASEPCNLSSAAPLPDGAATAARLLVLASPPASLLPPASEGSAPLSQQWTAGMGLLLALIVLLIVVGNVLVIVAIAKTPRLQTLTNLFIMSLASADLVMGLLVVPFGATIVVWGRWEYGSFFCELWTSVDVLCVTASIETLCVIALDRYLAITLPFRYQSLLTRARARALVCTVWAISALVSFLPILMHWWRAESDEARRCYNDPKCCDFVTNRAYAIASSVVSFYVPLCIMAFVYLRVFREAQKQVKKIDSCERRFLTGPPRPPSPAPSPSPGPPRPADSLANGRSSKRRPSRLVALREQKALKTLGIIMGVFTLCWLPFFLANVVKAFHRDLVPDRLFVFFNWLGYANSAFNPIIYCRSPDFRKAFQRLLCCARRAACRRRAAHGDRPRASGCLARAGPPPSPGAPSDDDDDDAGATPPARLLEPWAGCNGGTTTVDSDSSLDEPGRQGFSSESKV
D(1A) dopamine receptor, sequence (P18901 whole entry): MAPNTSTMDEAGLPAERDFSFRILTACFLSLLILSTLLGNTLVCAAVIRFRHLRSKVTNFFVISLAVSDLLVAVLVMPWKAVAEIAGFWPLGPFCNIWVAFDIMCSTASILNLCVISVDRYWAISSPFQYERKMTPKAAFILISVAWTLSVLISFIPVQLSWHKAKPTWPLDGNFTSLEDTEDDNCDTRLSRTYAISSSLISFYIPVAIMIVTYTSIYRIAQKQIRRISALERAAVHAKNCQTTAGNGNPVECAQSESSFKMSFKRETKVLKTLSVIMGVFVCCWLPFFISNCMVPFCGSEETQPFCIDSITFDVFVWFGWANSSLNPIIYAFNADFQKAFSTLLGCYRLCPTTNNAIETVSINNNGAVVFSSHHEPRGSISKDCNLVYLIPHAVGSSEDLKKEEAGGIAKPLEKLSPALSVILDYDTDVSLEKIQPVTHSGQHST
Description for D(1A) dopamine receptor: Binding affinity measured at the Dopamine receptor D1 by the inhibition of [3H]SCH-23390 binding to rat striatum using unlabeled apomorphine for nonspecific binding.

`Cc1coc2cc(OCCCN3CCC(C(=O)c4ccc(F)cc4)CC3)ccc2c1=O`: the half-maximal inhibitory concentration (IC50) (in general, the concentration that gives 50% inhibition) in experiment [1] turned out to be 0.0253 µM.
Take `O=C(c1ccc(F)cc1)C1CCN(CCCOc2ccc3c(=O)c(CO)coc3c2)CC1`: the ED50 (as a rule, the dose at which the effect has come halfway, by size or by number of responders) in the experiment with Rattus norvegicus [2] amounted to 13 mg/kg; in the experiment with Mus musculus [3], 2.02 mg/kg. The midpoint of inhibition in experiment [1], the IC50, lay at 0.0329 µM.
For `O=Cc1coc2cc(OCCCN3CCC(c4noc5cc(F)ccc45)CC3)ccc2c1=O`, the median effective dose (ED50) in the experiment on Mus musculus [3] was 3.32 mg/kg; with Rattus norvegicus [4], 15.9 mg/kg.
As for `COCc1coc2cc(OCCCN3CCC(c4noc5cc(F)ccc45)CC3)ccc2c1=O`, the results for the ED50 in the experiment on Rattus norvegicus [2] and in the experiment on Mus musculus [3] were 6.88 mg/kg and 0.27 mg/kg, respectively. In addition, the 50% inhibitory concentration (IC50) in experiment [1] was 0.0014 µM.
For the compound `Cc1coc2cc(OCCCN3CCC(c4noc5cc(F)ccc45)CC3)ccc2c1=O`, the median effective dose (ED50) with Rattus norvegicus [2] came to 2.85 mg/kg; with Mus musculus [3] it was 0.4 mg/kg.
`O=c1cc(CO)oc2cc(OCCCN3CCC(c4noc5cc(F)ccc45)CC3)ccc12`: the ED50 in the experiment on Rattus norvegicus [2] was greater than 100 mg/kg; with Mus musculus [3], 5.88 mg/kg. Further, in experiment [1], it took 0.0072 µM to reach half-maximal inhibition (IC50).
Regarding `O=C(O)c1coc2cc(OCCCN3CCC(c4noc5cc(F)ccc45)CC3)ccc2c1=O`, the results for the ED50 with Rattus norvegicus [2] and in the experiment with Mus musculus [3] were greater than 50 mg/kg and greater than 10 mg/kg, respectively.
On to `O=c1ccoc2cc(OCCCN3CCC(c4noc5cc(F)ccc45)CC3)ccc12`, for which the results for the 50% effective dose (ED50) in the experiment on Rattus norvegicus [2] and in the experiment with Mus musculus [3] were 12.6 mg/kg and 1.08 mg/kg, respectively. Also, the IC50 in experiment [1] was 0.0086 µM.
`O=c1c(CO)coc2cc(OCCCN3CCC(c4noc5cc(F)ccc45)CC3)ccc12` [ABAPERIDONE]: the Ki (commonly the equilibrium dissociation constant of an inhibitor or competing ligand from its target) in experiment [5] worked out at 0.0019 µM; at D(1A) dopamine receptor, 0.239 µM; on D(3) dopamine receptor it was 0.0054 µM; in [10], 0.0024 µM; in [11], 0.094 µM; at Adrenergic receptor beta, 2.99 µM. The Ki on D(4) dopamine receptor is 0.179 µM; in experiment [12] it was 1.13 µM; in experiment [13], 0.169 µM. The ED50 in the experiment on Rattus norvegicus [2] came out at 8.48 mg/kg; in the experiment filed under Rattus norvegicus [6], 18.6 mg/kg; in the experiment listed under Mus musculus [7] it was 0.08 mg/kg; in the experiment listed under Mus musculus [8], 0.31 mg/kg; in the experiment filed under Mus musculus [9], 0.16 mg/kg; in the experiment with Mus musculus [3], 0.24 mg/kg. Also, the IC50 in experiment [1] came out at 0.0062 µM.
In the case of `CN1CCN(C2=Nc3cc(Cl)ccc3Nc3ccccc32)CC1` [CLOZAPINE], the ED50 was greater than 100 mg/kg in the experiment with Rattus norvegicus [2]; greater than 100 mg/kg in the experiment filed under Rattus norvegicus [6]; 0.85 mg/kg in the experiment filed under Mus musculus [7]; 0.33 mg/kg in the experiment filed under Mus musculus [8]; 6.41 mg/kg in the experiment filed under Mus musculus [9]; 15.4 mg/kg in the experiment with Mus musculus [3].
In the case of `O=C(CCCN1CCC(O)(c2ccc(Cl)cc2)CC1)c1ccc(F)cc1` [HALOPERIDOL], the ED50 was 2 mg/kg in the experiment on Rattus norvegicus [2]; 0.56 mg/kg in the experiment listed under Mus musculus [7]; 0.28 mg/kg in the experiment filed under Mus musculus [8]; 0.3 mg/kg in the experiment filed under Mus musculus [9]; 0.31 mg/kg in the experiment with Mus musculus [3].
On to `Cc1nc2n(c(=O)c1CCN1CCC(c3noc4cc(F)ccc34)CC1)CCCC2` [RISPERIDONE], for which the ED50 is 5 mg/kg in the experiment on Rattus norvegicus [2]; 9.7 mg/kg in the experiment listed under Rattus norvegicus [6]; 0.41 mg/kg in the experiment filed under Mus musculus [8]; 0.2 mg/kg in the experiment filed under Mus musculus [9]; 0.29 mg/kg in the experiment with Mus musculus [3]. In addition, in experiment [14], the Ki amounted to 22 µM.
